Assay results from US8492515B2 (priority 2008, dated 2013).
Bridge positions count the residues as written; N and C are the ends. Square brackets hold non-standard residues; d marks the D form. Ends that are not written are not given here. I, II: the chains in the order shown. Ac6c = NC1(C(=O)O)CCCCC1; Dab = NCC[C@H](N)C(=O)O

Columns and labels:
[1] = tested on: S. saprophyticus ATCC 15305
Source text: (§1) To investigate the activity of the A3-APO metabolites, Chex1-Arg20 single chain unit and an Arg7-Arg20 common cleavage fragment were synthesized and studied for their ability to kill Enterobacteriaceae strains in undiluted Muller-Hinton broth, a true measure of potential clinical viability (Otvos et al., 2005. J. Med. Chem. 48: 5349-5359). The peptides of the invention were made on a CEM Liberty automated synthesizer with standard Fmoc-chemistry. The peptides were detached from the resin with the carboxyl terminus of the C-terminal Arg residue being in the form of an amino amide, —C(O)—NH2 (“Chex1-Arg20-NH2” and “Arg7-Arg20-NH2”), while still in the microwave chamber, and were purified by RP-HPLC. […] The biological studies carried out on chemically synthesized peptides in this example and succeeding examples were carried out on the C-terminal modified versions of the peptides wherein the C-terminal carboxylic acid function was in the form of an amide, —C(O)—NH2. Antibacterial growth inhibition assays were performed using sterile 96-well polypropylene plates (Nunc F96 microtiter plates) in a final volume of 100 μL as described previously (Cudic et al., 2002. Peptides 23: 271-283). The cell concentrations were estimated by measuring the ultraviolet absorbance at 600 nm and applying the formula cfu/mL=A600(3.8×10^8), where cfu is the number of colony-forming units. Briefly, 50 μL of a suspension of midlogarithmic phase bacterial cultures diluted to 5×10^5 cfu/mL in Muller-Hinton broth (MHB) was added to 50 μL of serially diluted peptides also dissolved in MHB. The final peptide concentration was 128 μg/mL. Cultures were then incubated at 37° C., 5% CO2 for 16-20 h without shaking, and growth inhibition was measured by recording the absorbance at 600 nm using a microplate reader. […] The minimal inhibitory concentration indicates the lowest peptide dose where no visible bacterial growth is detected after 16 hours incubation in full strength Muller-Hinton broth at 37° C. The peptide Chex-pyrr-Dap dimer was also included in the study. […] (Cudic et al., 2002. Peptides 23: 271-283).
(§2) Following the protocol of Example 2, minimal inhibitory concentrations of the Chex1-Arg20 peptide against selected bacteria was determined. […] A3-APO was included for comparison.

K. pneumoniae 012-3132 = tested on: K. pneumoniae 012-3132
Source text: as §1, §2

S. typhimurium S5 = tested on: S. typhimurium S5
Source text: as §1, §2

K. pneumoniae K6 = tested on: K. pneumoniae K6
Source text: as §1, §2

E. coli 045-849 = tested on: E. coli 045-849
Source text: as §1, §2

[2] = tested on: A. baumannii ATCC BBA-1605
Source text: as §1, §2

E. coli SEQ102 [3] = tested on: E. coli SEQ102
Source text: as §1, §2

P. aeruginosa 10 = tested on: P. aeruginosa 10
Source text: as §1, §2

S. typhimurium G10215 [4] = tested on: S. typhimurium G10215
Source text: as §1, §2

E. coli SOTE40 = tested on: E. coli SOTE40
Source text: as §1, §2

K. pneumoniae HK 186 = tested on: K. pneumoniae HK 186
Source text: as §1, §2

E. coli HK131 = tested on: E. coli HK131
Source text: as §1, §2

P. aeruginosa ATCC 39329 = tested on: P. aeruginosa ATCC 39329
Source text: as §1, §2

E. coli 5770 = tested on: E. coli 5770
Source text: as §1, §2

[5] = tested on: S. typhimurium ATCC 14028
Source text: as §1, §2

K. pneumoniae HK 123 = tested on: K. pneumoniae HK 123
Source text: as §1, §2

E. coli HK179 [6] = tested on: E. coli HK179
Source text: as §1, §2

K. pneumoniae HK 127 = tested on: K. pneumoniae HK 127
Source text: as §1, §2

in vitro [7] = assay type: in vitro ADME, mouse
Experimental: The stability of peptide A3-APO was analyzed in commercially available pooled mouse serum diluted to 25% with distilled water as follows. It has been shown that dilution of serum linearly reduces the degradation rate of peptides without changing any other proteolytic parameters (Powell et al., 1992. J. Pharm. Sci. 81: 731-735). […] Specifically, ninety μL of pooled sterile mouse serum (Equitech-Bio, Kerrville, Tex.) was added to 10 μL of peptide A3-APO dissolved in distilled water at 1.28 mg/mL concentration. After incubation periods of 0, 15, 30, 60 or 90, 120 and 240 min at 37° C., 20 μL 15% trichloracetic acid (TCA) was added, the mixture stored at 4° C. for 20 minutes, and centrifuged at 13,000 rpm. The supernatant was submitted to determination of remaining amount of unmodified A3-APO peptide by MS and RP-HPLC.

in vitro [8] = assay type: in vitro ADME; settings: mouse, serum
Experimental: The metabolic stability of peptide A3-APO in full serum in vitro was examined in peptide degredation studies in blood derived media. A3-APO was added to undiluted mouse serum preparation and was incubated in the full serum for 30 minutes. The serum proteins were precipitated and the serum was submitted for mass spectroscopic analysis.

E. coli SEQ102 [9] = settings: SEQ102, 16 h
Source text: as §1

S. typhimurium G10215 [10] = settings: G10215, 16 h
Source text: as §1

K. pneumoniae HK123 = settings: HK123, 16 h
Source text: as §1

E. coli HK179 [11] = settings: HK179, 16 h
Source text: as §1

## I: [Ac6c]RPDKPRPYLPRPRPPRPVR[Dab] / II: [Ac6c]RPDKPRPYLPRPRPPRPVR (amide I:21-II:C (inferred)) [Peptide A3-APO, reference compound]
[1]
  MIC, S. saprophyticus ATCC 15305: 2 µg/mL
K. pneumoniae 012-3132
  MIC, K. pneumoniae 012-3132: 2 µg/mL
S. typhimurium S5
  MIC, S. typhimurium S5: 8 µg/mL
K. pneumoniae K6
  MIC, K. pneumoniae K6: 4 µg/mL
E. coli 045-849
  MIC, E. coli 045-849: 4 µg/mL
[2]
  MIC, A. baumannii ATCC BBA-1605: 16 µg/mL
E. coli SEQ102 [3]
  MIC, E. coli SEQ102: 2 µg/mL
P. aeruginosa 10
  MIC, P. aeruginosa 10: 8 µg/mL
S. typhimurium G10215 [4]
  MIC, S. typhimurium G10215: 4 µg/mL
E. coli SOTE40
  MIC, E. coli SOTE40: 8 µg/mL
K. pneumoniae HK 186
  MIC, K. pneumoniae HK 186: 8 µg/mL
E. coli HK131
  MIC, E. coli HK131: 4 µg/mL
P. aeruginosa ATCC 39329
  MIC, P. aeruginosa ATCC 39329: 8 µg/mL
E. coli 5770
  MIC, E. coli 5770: 2 µg/mL
[5]
  MIC, S. typhimurium ATCC 14028: 8 µg/mL
K. pneumoniae HK 123
  MIC, K. pneumoniae HK 123: 4 µg/mL
E. coli HK179 [6]
  MIC, E. coli HK179: 2 µg/mL
K. pneumoniae HK 127
  MIC, K. pneumoniae HK 127: 8 µg/mL
In vitro [7]; 25% pooled mouse serum, 37° C.
  half-life at 0.128 mg/mL: ~3.83 h
In vitro [7]; serum
  original peptide amount remaining intact within the first hour: almost half
In vitro [8]
  metabolised at 0.5 h: ~35%
E. coli SEQ102 [9]
  MIC against E. coli SEQ102: 16 µg/mL
S. typhimurium G10215 [10]
  MIC against S. typhimurium G10215: 16 µg/mL
K. pneumoniae HK123
  MIC against K. pneumoniae HK123: 16 µg/mL
E. coli HK179 [11]
  MIC against E. coli HK179: 8 µg/mL
